Assay results as given in US6723897B2, “Methods for controlling gibberellin levels” (Monsanto Technology, LLC, priority 1998, dated 2004).

System: GA-deficient (Line 719, R5) soybeans
Test: Hilum treatment with GA15, GA19, GA24, GA44, hypocotyl length, GA-deficient soybean
Assay type: in vivo, Glycine max
Details: 10 μg/seed, 5 DAP
Source text: Transgenic seeds are fifth generation (R5) line 719 seeds.

Compound | hypocotyl height of GA-deficient (Line 719) soybeans (FIG. 41)
C=C1C[C@]23C[C@@]1(O)CC[C@H]2[C@@]12CCC[C@@](C)(C(=O)OC1)[C@H]2[C@@H]3C(=O)O [GA44] | restored normal or greater hypocotyl height
C=C1C[C@]23C[C@@]1(O)CC[C@H]2[C@]1(C=O)CCC[C@@](C)(C(=O)O)[C@H]1[C@@H]3C(=O)O [GA19] | restored normal or greater hypocotyl height
